Data taken from US5763453A, “Condensed indan derivatives and salts thereof” (Taiho Pharmaceutical Co., Ltd., priority 1995, dated 1998).
In brackets after ≈: the same amount, converted by molar mass. Where a name gives a salt, the structure may show the parent alone.

What follows are molecules tested on P 388 mouse leukemia cell line (assay: Cytocidal effect on P 388 mouse leukemia cells (crystal violet cytometry, three days' incubation)). Conditions: P388, 72 h, 2×10^3 cells/well, read-out: IC50 (concentration at which the cell count is 50% less than that of the control).
Format: cell-based
Experimental: Cytocidal Effect A 96-well plate was innoculated with 2×10^3 cells/well of P 388 mouse leukemia cell line. The compound of the present invention was dissoved in purified water or dimethylsulfoxide, and the solution was diluted with medium to various concentrations and placed into respective wells and incubated. After three day's incubation, the plate was fixed with glutaraldehyde and stained with crystal violet for cytometry.

SMILES | IC50 [mg/L]
CN(C)CCNc1c2c(nc3ccccc13)-c1cc(O)ccc1C2=O [Compound 3-a] | 0.15 (≈ 0.45 µM)
CCN(CC)CCSc1c2c(nc3ccc(O)cc13)-c1ccccc1C2=O [Compound 10-a] | 0.42 (≈ 1.11 µM)
O=C1c2ccccc2-c2nc3ccc(O)cc3c(N3CCC(N4CCCCC4)CC3)c21 [Compound 16-a] | 0.43 (≈ 1.04 µM)
COc1ccc2c(NCCN(C)C)c3c(nc2c1)-c1ccccc1C3=O [Compound 4] | 0.25 (≈ 0.72 µM)
CN(C)CCNc1c2c(nc3cc(O)ccc13)-c1ccccc1C2=O [Compound 5] | 0.052 (≈ 0.156 µM)
CN(C)CCNc1c2c(nc3ccc(O)cc13)-c1ccccc1C2=O [Compound 12] | 0.16 (≈ 0.48 µM)
CCN(CC)CCOc1c2c(nc3ccc(O)cc13)-c1ccccc1C2=O [Compound 11, 10-(((diethylamino)ethoxy)-8-hydroxy-11H-indeno[1,2-b]quinolin-11-one hydrochloride] | 0.096
CN(C)CCNc1c2c(nc3ccccc13)-c1ccc(O)cc1C2=O.Cl.Cl [Compound 2, 10-(((dimethylamino)ethyl)amino)-2-hydroxy-11H-indeno[1,2-b]quinolin-11-one dihydrochloride] | 0.15
COc1ccc2c(c1)C(=O)c1c-2nc2ccccc2c1NCCN(C)C.Cl.Cl [Compound 1, 10-(((dimethylamino)ethyl)amino)-2-methoxy-11H-indeno[1,2-b]quinolin-11-one dihydrochloride] | 0.34
COc1ccc2nc3c(c(N4CCN(C)CC4)c2c1)C(=O)c1ccccc1-3 [Compound 13] | 0.37 (≈ 1.03 µM)
CN1CCN(c2c3c(nc4ccc(O)cc24)-c2ccccc2C3=O)CC1 [Compound 14] | 0.22 (≈ 0.637 µM)
CN(C)CCCNc1c2c(nc3cc(O)ccc13)-c1ccccc1C2=O [Compound 7-a] | 0.16 (≈ 0.461 µM)
